Assay results published in the NIST ThermoML archive (doi:10.1021/je8002282).

Tests used:
[1] = xn = mol fraction of the nth substance listed; conditions: Liquid
[2] = Liquid

O=O [oxygen] + COC(=O)OC
[1], determining using the ratio of the masses to the volume of the sample.
Conditions | mass density [kg/m3]
293.15 K, x1 = 0.0612 | 1087.6
293.15 K, x1 = 0.0791 | 1062.4
293.15 K, x1 = 0.097 | 1032
293.15 K, x1 = 0.1266 | 984.7
293.15 K, x1 = 0.1605 | 931.3
293.15 K, x1 = 0.1977 | 838
313 K, x1 = 0.0506 | 1056.6
313 K, x1 = 0.061 | 1014.8
313 K, x1 = 0.0748 | 960.2
313 K, x1 = 0.099 | 885.7
313 K, x1 = 0.1307 | 824.8
313 K, x1 = 0.175 | 766.6
353 K, x1 = 0.0412 | 988.5
353 K, x1 = 0.0523 | 947.8
353 K, x1 = 0.0614 | 882.2
353 K, x1 = 0.0733 | 826.7
353 K, x1 = 0.082 | 728.8
353 K, x1 = 0.1018 | 685.3
373 K, x1 = 0.0233 | 935.5
373 K, x1 = 0.0347 | 900.2
373 K, x1 = 0.0539 | 841.3
373 K, x1 = 0.071 | 798.9
373 K, x1 = 0.0858 | 712.5
373 K, x1 = 0.0953 | 652.5

COC [dimethyl ether]
[2]
Conditions | vapor or sublimation pressure [kPa]
293 K | 520
313 K | 900
353 K | 2240
373 K | 3260

[C-]#[O+] [carbon monoxide] + COC(=O)OC
[1], Pycnometric method
Conditions | mass density [kg/m3]
293 K, x1 = 0.0547 | 1078
293 K, x1 = 0.0679 | 1036.5
293 K, x1 = 0.0838 | 992.5
293 K, x1 = 0.1138 | 963.5
293 K, x1 = 0.1413 | 919.7
293 K, x1 = 0.1606 | 865.9
313 K, x1 = 0.0534 | 966.4
313 K, x1 = 0.0646 | 948
313 K, x1 = 0.0868 | 910.2
313 K, x1 = 0.1087 | 885.7
313 K, x1 = 0.1199 | 834.8
313 K, x1 = 0.1511 | 786.6
353 K, x1 = 0.0485 | 868.7
353 K, x1 = 0.0677 | 853
353 K, x1 = 0.0752 | 847.4
353 K, x1 = 0.0873 | 802.4
353 K, x1 = 0.0936 | 773.3
353 K, x1 = 0.1204 | 720.7
373 K, x1 = 0.0418 | 841.2
373 K, x1 = 0.0545 | 829.8
373 K, x1 = 0.0723 | 801.3
373 K, x1 = 0.084 | 786.7
373 K, x1 = 0.0943 | 754.3
373 K, x1 = 0.1095 | 710.1

COC(=O)OC [dimethyl carbonate]
[2]
Conditions | vapor or sublimation pressure [kPa]
293 K | 10
313 K | 20
353 K | 70
373 K | 140
